Results published in US12011444B2, “N-substituted indole derivatives as PGE2 receptor modulators” (Idorsia Pharmaceuticals Ltd, priority 2015, dated 2024).

Columns and labels:
PTRGER4 (EP4) = PTRGER4 (EP4) (Homo sapiens (Human), UniProt P35408); assay: hEP4 b-arrestin assay (PathHunter HEK 293 PTGER4 b-arrestin cells); format: cell-based
Summary of the method: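 Antagonist mode: compound is given 15 min at 37 °C, then 20 nM (final) PGE2 for 120 min, in HEK293 cells stably expressing EP4 fused to ProLink and β-arrestin 2 fused to EA. Recruitment read as β-gal luminescence after 1 h reagent at room temperature, as percent of DMSO control.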

PTGER2 (EP2) = PTGER2 (EP2) (Homo sapiens (Human), UniProt P43116); assay: hEP2 b-arrestin assay (PathHunter HEK 293 PTGER2 b-arrestin cells); format: cell-based
Sequence of PTGER2 (EP2) (P43116 whole entry): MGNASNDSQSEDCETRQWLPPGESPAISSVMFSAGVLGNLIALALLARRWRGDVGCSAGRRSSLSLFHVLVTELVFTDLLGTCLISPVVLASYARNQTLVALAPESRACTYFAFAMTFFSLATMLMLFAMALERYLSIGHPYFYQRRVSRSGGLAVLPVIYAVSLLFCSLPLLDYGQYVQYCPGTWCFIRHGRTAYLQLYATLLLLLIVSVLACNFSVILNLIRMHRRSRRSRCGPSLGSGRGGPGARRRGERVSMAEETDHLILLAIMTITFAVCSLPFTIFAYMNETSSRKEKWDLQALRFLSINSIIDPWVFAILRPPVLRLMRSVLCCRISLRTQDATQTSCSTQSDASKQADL
Summary of the method: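 Readout is β-galactosidase complementation luminescence, expressed as percent of DMSO control (duplicates). PathHunter HEK293 EP2/β-arrestin 2 cells, grown 24 h, received compound for 15 min at 37 °C before a 120 min challenge with PGE2 at 5 μM final, followed by 1 h detection at room temperature.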

[1] = hEP4 b-arrestin assay (values without asterisk)
[2] = hEP2 b-arrestin assay (values without asterisk)
[3] = antagonistic activity on hEP4, mean where measured multiple times
[4] = antagonistic activity on hEP2, mean where measured multiple times

Sequence of PTRGER4 (EP4) (P35408 whole entry, looked up, the tested form may be a part): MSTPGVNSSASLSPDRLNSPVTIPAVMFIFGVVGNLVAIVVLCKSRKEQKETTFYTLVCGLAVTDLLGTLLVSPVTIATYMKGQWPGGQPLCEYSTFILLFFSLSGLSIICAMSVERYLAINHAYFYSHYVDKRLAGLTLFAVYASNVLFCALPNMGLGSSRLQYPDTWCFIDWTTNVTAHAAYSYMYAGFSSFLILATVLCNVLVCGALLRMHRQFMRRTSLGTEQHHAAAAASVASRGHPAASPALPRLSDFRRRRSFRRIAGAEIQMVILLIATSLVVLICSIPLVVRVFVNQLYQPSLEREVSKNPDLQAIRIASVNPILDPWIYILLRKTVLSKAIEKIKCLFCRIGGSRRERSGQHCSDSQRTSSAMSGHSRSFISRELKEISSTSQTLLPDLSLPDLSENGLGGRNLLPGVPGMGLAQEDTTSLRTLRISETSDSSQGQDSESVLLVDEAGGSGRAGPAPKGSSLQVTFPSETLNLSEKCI

Row | IC50 (PTRGER4 (EP4); [1]) | IC50 (PTGER2 (EP2); [2]) | IC50 (PTRGER4 (EP4); [3]) | IC50 (PTGER2 (EP2); [4]) | SMILES
1 |  |  | 313 nM | 22 nM | CCOc1cc(-c2cc(NCCn3c(C)cc4c(Cl)cc(Cl)cc43)ncn2)ccc1C(=O)O [compound 279]
2 | 14 nM | 10 nM |  |  | COc1ccc(F)c2c1cc(C)n2CCNc1cc(-c2nc(OC(C)C)c(C(=O)O)s2)ncn1 [Example 1032, 2-{6-[2-(7-Fluoro-4-methoxy-2-methyl-indol-1-yl)-ethylamino]-pyrimidin-4-yl}-4-isopropoxy-thiazole-5-carboxylic acid]
3 |  |  | 543 nM | 24 nM | Cc1cc(-c2cc(NCCn3c(C)cc4c(C)ccc(F)c43)ncn2)ccc1C(=O)O [compound 31, 4-{6-[2-(7-Fluoro-2,4-dimethyl-indol-1-yl)-ethylamino]-pyrimidin-4-yl}-2-methyl-benzoic acid]
4 |  |  | 734 nM | 26 nM | COc1ccc(F)c2c1cc(C)n2CCNc1cc(-c2ccc3c(C(=O)O)n[nH]c3c2)ncn1 [compound 389]
5 |  |  | 164 nM | 89 nM | CCc1cc(-c2cc(NCCn3c(C)cc4c(OC)ccc(Cl)c43)ncn2)cc(Cl)c1C(=O)O [compound 345]
6 |  |  | 133 nM | 185 nM | CCc1cc(-c2cc(NCCn3c(C)cc4cc(OC)cc(F)c43)ncn2)sc1C(=O)O [compound 231]
7 |  |  | 124 nM | 25 nM | CCc1cc(-c2cc(NCCn3c(C)cc4c(OC)ccc(Cl)c43)ncn2)sc1C(=O)O [compound 225]
8 | 89 nM | 40 nM |  |  | CCOc1cc(-c2cc(NCCn3c(C)cc4c(OC)c(F)cc(Cl)c43)ncn2)sc1C(=O)O [Example 885, 5-{6-[2-(7-Chloro-5-fluoro-4-methoxy-2-methyl-indol-1-yl)-ethylamino]-pyrimidin-4-yl}-3-ethoxy-thiophene-2-carboxylic acid]
9 | 453 nM | 380 nM |  |  | CCOC(=O)Cc1ccc(-c2cc(NCCn3c(C)cc4c(OC)ccc(F)c43)ncn2)cc1 [Example 897, (4-{6-[2-(7-Fluoro-4-methoxy-2-methyl-indol-1-yl)-ethylamino]-pyrimidin-4-yl}-phenyl)-acetic acid ethyl ester]
10 | 3 nM | 9 nM |  |  | CCOc1cc(-c2cc(NCCn3c(C#N)cc4c(OC)ccc(F)c43)ncn2)sc1C(=O)OCC(=O)N(C)C [Example 1044, 5-{6-[2-(2-Cyano-7-fluoro-4-methoxy-indol-1-yl)-ethylamino]-pyrimidin-4-yl}-3-ethoxy-thiophene-2-carboxylic acid dimethylcarbamoylmethyl ester]
11 |  |  | 151 nM | 7 nM | CCOc1cc(-c2cc(NCCn3c(C)cc4c(C)ccc(F)c43)ncn2)ccc1CO [compound 124, (2-Ethoxy-4-{6-[2-(7-fluoro-2,4-dimethyl-indol-1-yl)-ethylamino]-pyrimidin-4-yl}-phenyl)-methanol]
12 | 212 nM | 58 nM |  |  | Cc1c(F)c(F)cc2c1cc(C#N)n2CCNc1cc(-c2cc(C(F)(F)F)c(C(=O)O)s2)ncn1 [Example 857, 5-{6-[2-(2-Cyano-5,6-difluoro-4-methyl-indol-1-yl)-ethylamino]-pyrimidin-4-yl}-3-trifluoromethyl-thiophene-2-carboxylic acid]
13 |  |  | 590 nM | 27 nM | CCOc1cc(-c2cc(NCCn3c(C)cc4c(C)ccc(Cl)c43)ncn2)ccc1C(=O)O [compound 157, 4-{6-[2-(7-Chloro-2,4-dimethyl-indol-1-yl)-ethylamino]-pyrimidin-4-yl}-2-ethoxy-benzoic acid]
14 | 6 nM | 33 nM |  |  | CCOc1cc(-c2cc(NCCn3c(C#N)cc4c(OC)ccc(F)c43)ncn2)sc1C(=O)N(C)C [Example 1025, 5-{6-[2-(2-Cyano-7-fluoro-4-methoxy-indol-1-yl)-ethylamino]-pyrimidin-4-yl}-3-ethoxy-thiophene-2-carboxylic acid dimethylamide]
15 |  |  | 105 nM | 16 nM | COc1ccc(F)c2c1cc(C)n2CCNc1cc(-c2ccc(-c3cnco3)cc2)ncn1 [compound 202, [2-(7-Fluoro-4-methoxy-2-methyl-indol-1-yl)-ethyl]-[6-(4-oxazol-5-yl-phenyl)-pyrimidin-4-yl]-amine]
16 |  |  | 382 nM | 19 nM | COc1ccc(F)c2c1cc(C)n2CCNc1cc(-c2ccc(S(=O)(=O)O)cc2)ncn1 [compound 116, 4-{6-[2-(7-Fluoro-4-methoxy-2-methyl-indol-1-yl)-ethylamino]-pyrimidin-4-yl}-benzenesulfonic acid]
17 | 4 nM | 9 nM |  |  | COc1ccc(F)c2c1cc(C#N)n2CCNc1cc(-c2cc3cc(C(=O)O)ccc3[nH]2)ncn1 [Example 960, 2-{6-[2-(2-Cyano-7-fluoro-4-methoxy-indol-1-yl)-ethylamino]-pyrimidin-4-yl}-1H-indole-5-carboxylic acid]
18 |  |  | 6 nM | 2 nM | CCOc1cc(-c2cc(NCCn3c(C)cc4c(OC)cc(F)cc43)ncn2)sc1C(=O)O [compound 257]
19 | 7 nM | 8 nM |  |  | CCOc1cc(-c2cc(NCCn3c(C#N)cc4c(OC)ccc(F)c43)ncn2)sc1C(=O)NS(=O)(=O)C(C)C [Example 815, Propane-2-sulfonic acid (5-{6-[2-(2-cyano-7-fluoro-4-methoxy-indol-1-yl)-ethylamino]-pyrimidin-4-yl}-3-ethoxy-thiophene-2-carbonyl)-amide]
20 |  |  | 44 nM | 24 nM | CCc1cc(-c2cc(NCCn3c(C)cc4c(C)cc(F)cc43)ncn2)sc1C(=O)O [compound 104]
21 |  |  | 388 nM | 24 nM | COc1ccc(F)c2c1cc(C)n2CCNc1cc(-c2ccc3cc[nH]c3c2)ncn1 [compound 68, [2-(7-Fluoro-4-methoxy-2-methyl-indol-1-yl)-ethyl]-[6-(1H-indol-6-yl)-pyrimidin-4-yl]-amine]

Second part, the compound before the results:

Row | SMILES | IC50 (PTRGER4 (EP4); [1]) | IC50 (PTGER2 (EP2); [2]) | IC50 (PTRGER4 (EP4); [3]) | IC50 (PTGER2 (EP2); [4])
22 | [2H]C([2H])(Nc1cc(-c2cc(Cl)c(C(=O)O)c(OCCCC)c2)ncn1)C([2H])([2H])n1c(C)cc2c(OC)ccc(F)c21 [Example 836, 2-butoxy-6-chloro-4-(6-((2-(7-fluoro-4-methoxy-2-methyl-1H-indol-1-yl)ethyl-1,1,2,2-d4)amino)pyrimidin-4-yl)benzoic acid] | 32 nM | 7 nM |  | 
23 | Cc1cc(F)cc2c1cc(C)n2CCNc1cc(-c2cc(C(F)(F)F)c(C(=O)O)s2)ncn1 [compound 269] |  |  | 117 nM | 61 nM
24 | CSc1cc(-c2cc(NCCn3c(C)cc4c(C)c(F)cc(Cl)c43)ncn2)ccc1C(=O)O [compound 270] |  |  | 513 nM | 46 nM
25 | CNc1cc(-c2cc(NCCn3c(C)cc4c(OC)cc(F)cc43)ncn2)ccc1C(=O)O [Example 1017, 4-{6-[2-(6-Fluoro-4-methoxy-2-methyl-indol-1-yl)-ethylamino]-pyrimidin-4-yl}-2-methylamino-benzoic acid] | 31 nM | 7 nM |  | 
26 | CCOc1cc(-c2cc(NCCn3c(C)cc4cc(Cl)cc(Cl)c43)ncn2)ccc1C(=O)O [compound 153] |  |  | 739 nM | 202 nM
27 | COc1cc(F)cc2c1cc(C)n2CCNc1cc(-c2cc(Cl)c(C(=O)O)c(Cl)c2)ncn1 [compound 291] |  |  | 104 nM | 41 nM
28 | CCNc1cc(-c2cc(NCCn3c(C)cc4cccc(OC)c43)ncn2)ccc1C(=O)O [compound 247] |  |  | 681 nM | 32 nM
29 | CCCc1cc(-c2cc(NCCn3c(C)cc4cc(Cl)cc(F)c43)ncn2)ccc1C(=O)O [compound 263] |  |  | 587 nM | 90 nM
30 | CCOc1cc(-c2cc(NCCn3c(C)cc4cc(C)cc(Cl)c43)ncn2)ccc1C(=O)O [compound 284] |  |  | 824 nM | 34 nM
31 | COc1cc(F)cc2c1cc(C)n2CCNc1cc(-c2ccc(-c3noc(=O)[nH]3)cc2)ncn1 [compound 312, 3-(4-{6-[2-(6-Fluoro-4-methoxy-2-methyl-indol-1-yl)-ethylamino]-pyrimidin-4-yl}-phenyl)-4H-[1,2,4]oxadiazol-5-one] |  |  | 85 nM | 44 nM
32 | COc1cccc2c1cc(C)n2CCNc1cc(-c2ccc3c(c2)CCN3)ncn1 [compound 12, [6-(2,3-Dihydro-1H-indol-5-yl)-pyrimidin-4-yl]-[2-(4-methoxy-2-methyl-indol-1-yl)-ethyl]-amine] |  |  | 144 nM | 11 nM
33 | COc1ccc(Cl)c2c1cc(C)n2CCNc1cc(-c2ccc3[nH]c(C)nc3c2)ncn1 [compound 80] |  |  | 713 nM | 238 nM
34 | Cc1ccc(F)c2c1cc(C)n2CCNc1cc(-c2ccc(-c3ccn[nH]3)cc2)ncn1 [compound 70, [2-(7-Fluoro-2,4-dimethyl-indol-1-yl)-ethyl]-{6-[4-(2H-pyrazol-3-yl)-phenyl]-pyrimidin-4-yl}-amine] |  |  | 145 nM | 33 nM
35 | Cc1cc(F)cc2c1cc(C)n2CCNc1cc(-c2cc(Cl)c(C(=O)O)c(Cl)c2)ncn1 [compound 390] |  |  | 146 nM | 38 nM
36 | Cc1ccc(Cl)c2c1cc(C)n2CCNc1cc(-c2ccc3[nH]c(C(=O)O)cc3c2)ncn1 [compound 201] |  |  | 389 nM | 232 nM
37 | CCCc1cc(-c2cc(NCCn3c(C)cc4cc(F)cc(F)c43)ncn2)ccc1C(=O)O [compound 145, 4-{6-[2-(5,7-Difluoro-2-methyl-indol-1-yl)-ethylamino]-pyrimidin-4-yl}-2-propyl-benzoic acid] |  |  | 302 nM | 8 nM
38 | Cc1cc(-c2cc(NCCn3c(C)cc4c(C)ccc(F)c43)ncn2)cc(F)c1C(=O)O [compound 218] |  |  | 519 nM | 18 nM
39 | Cc1ccc(F)c2c1cc(C)n2CCNc1cc(-c2ccc(-c3c[nH]cn3)cc2)ncn1 [compound 72, [2-(7-Fluoro-2,4-dimethyl-indol-1-yl)-ethyl]-{6-[4-(1H-imidazol-4-yl)-phenyl]-pyrimidin-4-yl}-amine] |  |  | 28 nM | 45 nM
